Earlier results in patent publication US8524202B2, “Tooth whitening compositions and methods” (priority 2008, dated 2013).

Conditions: at six months; concentrations 16%-18% carbamide peroxide; Brunton et al., 2004

NC(N)=O.OO [carbamide peroxide]
rebound, patients: 40%
